According to ChEMBL document CHEMBL1201862, “PubChem BioAssay data set” (2004):
Calls of active or inactive are those of the source.

Assays:
[1] = biological target: Cytochrome P450 2D6 (Homo sapiens, UniProt P10635);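 further: CYP2D6 member of a cytochrome P450 panel assay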
[2] = biological target: T1, Ubiquitin-conjugating enzyme E2 N (Homo sapiens, UniProt P61088); assay type: functional;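 further: Dose-response confirmation in a TR-FRET assay detecting UBC13-driven polyubiquitin chain formation, inhibition measured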
T1 sequence (P61088 whole entry): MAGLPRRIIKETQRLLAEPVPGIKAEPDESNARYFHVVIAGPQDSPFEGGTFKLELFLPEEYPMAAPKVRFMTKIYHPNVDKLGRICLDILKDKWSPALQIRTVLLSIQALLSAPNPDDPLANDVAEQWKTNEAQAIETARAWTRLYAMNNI

[3] = system: H4; test: Luminescence Cell-Based Dose Response HTS to Identify Activators of 5'UTR Stem-Loop Driven Prion Protein mRNA Translation in H4 Neuroglioblastoma Cells. [Related pubchem assays: 1829 (Project Summary), 1814 (Primary HTS)]; assay type: functional; details: Homo sapiens
[4] = Luminescence Cell-Based Dose Response HTS to Identify Activators of Luciferase Translation or Activity in H4 […] Cells. [Related pubchem assays: 1829 (Project Summary), 1814 (Primary HTS)]; assay type: functional
[5] = system: INS1; test: beta cell apoptosis inhibitors, cytokine rescue, dose response, luminescence, retest (AID 449756); assay type: functional, cell-based; details: Rattus norvegicus;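 further: cell death triggered by IL-1 beta plus TNF-alpha plus IFN-gamma mixture; protective hits raise ATP signal compared with cytokine alone wells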
[6] = biological target: T2, Heat shock factor protein 1 (Mus musculus, UniProt P38532); test: HSF1 potentiators in luciferase reporter cells, confirmation, cell-based, NIH3T3, luminescence, dose retest (AID 435004); assay type: functional;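 further: stress induced by proteasome inhibitor MG132 added 30 min after compound; luciferase reporter driven by HSF1 response element in NIH3T3 cells; actives raise luminescence as potentiators of the MG132 stress response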
T2 sequence (P38532 whole entry): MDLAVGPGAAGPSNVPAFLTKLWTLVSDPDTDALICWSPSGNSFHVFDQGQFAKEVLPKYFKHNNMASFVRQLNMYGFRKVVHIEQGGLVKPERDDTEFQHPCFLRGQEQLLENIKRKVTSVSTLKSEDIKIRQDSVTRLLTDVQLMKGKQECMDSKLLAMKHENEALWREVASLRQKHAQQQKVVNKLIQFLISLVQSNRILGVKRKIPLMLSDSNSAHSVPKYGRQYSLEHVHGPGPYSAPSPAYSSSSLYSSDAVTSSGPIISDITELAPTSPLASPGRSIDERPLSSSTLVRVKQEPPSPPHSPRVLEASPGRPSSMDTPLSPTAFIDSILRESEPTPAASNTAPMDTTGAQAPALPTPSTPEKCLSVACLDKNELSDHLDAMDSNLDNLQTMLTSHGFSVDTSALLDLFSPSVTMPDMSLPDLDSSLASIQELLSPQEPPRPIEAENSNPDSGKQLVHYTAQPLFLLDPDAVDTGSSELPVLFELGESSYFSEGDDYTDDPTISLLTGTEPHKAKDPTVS

[7] = biological target: T3, Streptokinase A (Streptococcus pyogenes serotype M1, UniProt P10520); test: S. pyogenes streptokinase expression inhibitors, potency, dose response, plasminogen activation absorbance, OD405 (AID 1914); assay type: functional, Streptococcus pyogenes M1 GAS;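 further: secreted streptokinase activity via plasminogen activation per viability signal from cell pellet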
T3 sequence (P10520 whole entry): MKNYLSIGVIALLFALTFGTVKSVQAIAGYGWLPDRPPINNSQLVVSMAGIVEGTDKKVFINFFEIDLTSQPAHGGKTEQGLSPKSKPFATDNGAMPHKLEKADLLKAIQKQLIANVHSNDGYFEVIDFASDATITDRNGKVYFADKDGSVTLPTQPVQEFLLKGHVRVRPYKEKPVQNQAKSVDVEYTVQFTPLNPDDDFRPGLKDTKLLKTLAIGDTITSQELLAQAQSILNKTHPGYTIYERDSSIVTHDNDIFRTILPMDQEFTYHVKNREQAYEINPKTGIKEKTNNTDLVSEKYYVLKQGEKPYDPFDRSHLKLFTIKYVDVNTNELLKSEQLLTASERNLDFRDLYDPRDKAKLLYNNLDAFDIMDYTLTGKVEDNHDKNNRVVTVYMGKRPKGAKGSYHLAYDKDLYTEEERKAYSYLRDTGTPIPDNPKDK

[8] = Luminescence Cell-Based Dose Retest to Confirm Inhibitors of Cancer Stem Cells. [Related pubchem assays (depositor defined):AID2717, AID2721]; assay type: functional; details: Homo sapiens
[9] = system: Streptococcus sp. 'group A'; test: growth inhibition of control SK(-) GAS strain, dose response, counter-screen for streptokinase expression inhibitor project, luminescence, kanamycin, BacTiterGlo, confirmation (AID 1900); assay type: functional, organism-based
[10] = system: Streptococcus; test: Group A Streptococcus viability loss, dose response, counter-screen for streptokinase expression inhibitor project, luminescence, BacTiterGlo (AID 1915); assay type: functional, organism-based;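 further: potency for reduction of bacterial viability or growth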
[11] = biological target: T4, Rac GTPase-activating protein 1 (Homo sapiens, UniProt Q9H0H5); test: MgcRacGAP GTPase-activating activity inhibitors, confirmation, biochemical, ADP Hunter fluorescence, primary and confirmatory (AID 624330); assay type: functional
T4 sequence (Q9H0H5 whole entry): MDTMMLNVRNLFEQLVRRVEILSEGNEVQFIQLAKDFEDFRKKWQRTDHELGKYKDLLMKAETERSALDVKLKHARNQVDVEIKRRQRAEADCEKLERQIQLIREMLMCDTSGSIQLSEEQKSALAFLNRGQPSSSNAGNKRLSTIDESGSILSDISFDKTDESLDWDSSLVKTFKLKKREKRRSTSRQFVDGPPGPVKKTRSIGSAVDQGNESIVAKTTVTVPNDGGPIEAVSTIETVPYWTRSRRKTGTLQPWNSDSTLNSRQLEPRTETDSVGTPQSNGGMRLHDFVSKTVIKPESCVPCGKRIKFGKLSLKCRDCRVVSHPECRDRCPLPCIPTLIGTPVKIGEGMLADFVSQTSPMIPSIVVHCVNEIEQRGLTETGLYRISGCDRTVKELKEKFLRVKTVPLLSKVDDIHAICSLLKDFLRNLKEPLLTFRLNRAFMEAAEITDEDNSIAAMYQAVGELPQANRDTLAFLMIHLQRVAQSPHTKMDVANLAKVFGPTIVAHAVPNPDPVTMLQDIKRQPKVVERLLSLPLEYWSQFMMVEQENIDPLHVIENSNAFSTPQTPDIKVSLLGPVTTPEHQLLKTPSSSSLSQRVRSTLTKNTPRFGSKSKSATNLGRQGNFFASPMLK

[12] = biological target: Cytochrome P450 3A4 (Homo sapiens, UniProt P08684);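 further: CYP3A4 tested as one member of a cytochrome P450 panel screen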
Sequence of Cytochrome P450 3A4 (P08684 whole entry): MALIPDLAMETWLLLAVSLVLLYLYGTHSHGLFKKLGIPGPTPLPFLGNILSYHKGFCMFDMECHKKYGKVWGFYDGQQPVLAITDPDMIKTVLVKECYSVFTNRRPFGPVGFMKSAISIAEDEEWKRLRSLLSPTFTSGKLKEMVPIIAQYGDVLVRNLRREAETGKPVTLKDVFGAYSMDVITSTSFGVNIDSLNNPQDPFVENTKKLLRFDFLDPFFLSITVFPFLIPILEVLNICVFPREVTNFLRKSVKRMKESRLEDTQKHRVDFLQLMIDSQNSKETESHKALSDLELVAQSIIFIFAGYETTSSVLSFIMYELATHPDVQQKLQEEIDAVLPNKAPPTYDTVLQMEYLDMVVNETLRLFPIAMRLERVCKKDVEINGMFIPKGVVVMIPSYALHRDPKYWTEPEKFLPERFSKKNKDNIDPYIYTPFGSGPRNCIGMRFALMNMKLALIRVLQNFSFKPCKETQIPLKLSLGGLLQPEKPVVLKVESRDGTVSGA

[13] = cytotoxicity toward NIH3T3 fibroblasts, dose response, counter-screen, cell-based, ATP luminescence, mouse fibroblasts (AID 2010); assay type: functional; details: NIH3T3;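 further: cells exposed to compound for about 90 hours before reading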
[14] = inhibitors of intracellular T. cruzi replication, confirmation, NIH3T3 host cells, beta-gal luminescence (AID 2044); assay type: functional, cell-based;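 further: intracellular parasites grown in NIH/3T3 mouse fibroblasts as host cells; luminescent beta-galactosidase reporter signal from transgenic T. cruzi replicating inside host cells; inhibitors lower the luminescence signal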
[15] = biological target: Cytochrome P450 2C19 (Homo sapiens, UniProt P33261); test: Cytochrome panel assay with activity outcomes. Panel member name: p450-cyp2c19 Compounds with AC50 equal or less than 10 uM are considered active; assay type: functional; details: read-out: AC50
Sequence of Cytochrome P450 2C19 (P33261 whole entry): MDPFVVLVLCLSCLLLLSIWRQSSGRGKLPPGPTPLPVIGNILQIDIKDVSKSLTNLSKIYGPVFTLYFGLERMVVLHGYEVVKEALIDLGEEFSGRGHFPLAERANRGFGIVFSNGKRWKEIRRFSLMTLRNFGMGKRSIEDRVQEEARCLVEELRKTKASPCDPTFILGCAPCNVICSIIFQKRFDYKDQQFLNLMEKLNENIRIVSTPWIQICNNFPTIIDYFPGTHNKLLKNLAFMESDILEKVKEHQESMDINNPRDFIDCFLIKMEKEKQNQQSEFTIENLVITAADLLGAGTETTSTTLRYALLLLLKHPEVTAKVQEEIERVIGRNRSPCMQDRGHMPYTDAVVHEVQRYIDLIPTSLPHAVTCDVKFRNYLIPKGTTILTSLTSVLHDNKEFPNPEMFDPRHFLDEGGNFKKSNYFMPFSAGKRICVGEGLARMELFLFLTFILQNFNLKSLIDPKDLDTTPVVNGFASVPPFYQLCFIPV

[16] = biological target: Cytochrome P450 2C9 (Homo sapiens, UniProt P11712)
Sequence of Cytochrome P450 2C9 (P11712 whole entry): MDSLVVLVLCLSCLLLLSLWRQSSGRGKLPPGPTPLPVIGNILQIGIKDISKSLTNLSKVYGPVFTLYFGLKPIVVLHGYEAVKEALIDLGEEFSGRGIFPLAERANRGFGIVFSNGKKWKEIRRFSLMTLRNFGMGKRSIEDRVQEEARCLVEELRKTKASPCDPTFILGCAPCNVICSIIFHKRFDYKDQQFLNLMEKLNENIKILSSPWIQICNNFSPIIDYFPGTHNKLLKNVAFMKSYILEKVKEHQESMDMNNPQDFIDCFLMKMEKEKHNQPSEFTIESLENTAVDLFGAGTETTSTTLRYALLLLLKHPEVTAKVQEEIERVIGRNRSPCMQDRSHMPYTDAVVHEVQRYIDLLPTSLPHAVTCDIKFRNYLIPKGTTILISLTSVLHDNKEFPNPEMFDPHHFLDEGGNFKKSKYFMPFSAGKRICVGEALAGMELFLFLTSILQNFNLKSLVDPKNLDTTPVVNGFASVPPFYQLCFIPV

Sequence of Cytochrome P450 2D6 (P10635 whole entry): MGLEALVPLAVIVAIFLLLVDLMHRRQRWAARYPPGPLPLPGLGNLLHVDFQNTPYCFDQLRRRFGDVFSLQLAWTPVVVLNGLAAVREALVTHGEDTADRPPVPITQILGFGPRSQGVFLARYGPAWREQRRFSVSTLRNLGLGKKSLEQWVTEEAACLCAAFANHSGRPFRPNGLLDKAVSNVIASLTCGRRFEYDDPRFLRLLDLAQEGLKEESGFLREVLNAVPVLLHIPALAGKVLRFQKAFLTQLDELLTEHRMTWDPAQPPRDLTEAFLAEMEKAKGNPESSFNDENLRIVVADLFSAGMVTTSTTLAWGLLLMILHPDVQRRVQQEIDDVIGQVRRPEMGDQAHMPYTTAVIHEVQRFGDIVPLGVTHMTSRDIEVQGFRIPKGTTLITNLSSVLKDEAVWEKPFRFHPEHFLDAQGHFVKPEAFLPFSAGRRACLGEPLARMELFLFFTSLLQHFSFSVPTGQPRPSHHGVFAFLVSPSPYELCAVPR

SMILES: COCCn1c(=O)c(-c2ccc(Cl)cc2)nc2cnc(N(C)C)nc21
- AC50 [1]: 0.0794 µM (inconclusive)

SMILES: CCOC(=O)N1CCc2c(sc(NC(=O)CN(CC)CC)c2C#N)C1
- IC50 [2]: > 20 µM (inactive)

SMILES: Cc1cc(C(=O)CSc2nnnn2C)c(C)n1Cc1ccco1
- EC50 [3]: > 120 µM (not active)
- EC50 [4]: 5.73 µM (active)

SMILES: CCc1ccc(C2CC(c3cccc(Cl)c3)n3nc(N)nc3N2)cc1 (stereo not drawn)
- AC50 [5]: > 120 µM (inactive)

SMILES: COc1cccc(-c2nc(N3CCN(c4ccccc4)CC3)c3ccccc3n2)c1O
- EC50 [6]: > 260 µM (inactive)

SMILES: CCCCOC(=O)CCCc1ccc([N+](=O)[O-])cc1[N+](=O)[O-]
- EC50 [6]: > 260 µM (inactive)

SMILES: Cc1onc(-c2ccccc2)c1C(=O)N=C(N)c1ccc(C(F)(F)F)cc1
- EC50 [6]: > 260 µM (inactive)

SMILES: O=C(OCc1ccccc1F)c1ccc2c(c1)OCCO2
- EC50 [3]: 5.23 µM (active)
- EC50 [4]: 1.38 µM (active)

SMILES: Cc1c(C)n(Cc2ccccc2)c2ncnc(N)c12
- IC50 [2]: > 20 µM (inactive)

SMILES: CCCSc1nsc(NC(=O)C(c2ccccc2)c2ccccc2)n1
- EC50 [7]: 11.3 µM (active)
- AC50 [8]: 2.87 µM (active)
- EC50 [9]: 2.73 µM (active)
- EC50 [10]: 6.12 µM (active)

SMILES: Cc1noc(-c2ccc(C(F)(F)F)cc2)c1NC(=O)Nc1ccc(Cl)cc1
- AC50 [5]: 6.96 µM (active)

SMILES: N#CC1=C(S)N(c2ccccc2)C(c2ccc(-c3cccc(Cl)c3)o2)NC1=O (stereo not drawn)
- IC50 [11]: 181 µM (active)

SMILES: COc1ccc(C2Nc3ccccc3C(=O)N2c2ccc(C)cc2)cc1Cn1nnc2ccccc21 (stereo not drawn)
- EC50 [3]: 50.7 µM (active)
- EC50 [4]: 4.2 µM (active)

SMILES: Cc1ccc(NC(=O)CN2CCN(C)CC2)cc1Br
- IC50 [11]: 98.5 µM (active)

SMILES: COc1ccc2[nH]cc(CCNc3cc(-c4cccnc4)ncn3)c2c1
- AC50 [1]: 20 µM (inconclusive)

SMILES: COCCCn1c(C(=O)NC2CCCCC2C)cc2c(=O)n3cccc(C)c3nc21 (stereo not drawn)
- EC50 [6]: > 260 µM (inactive)

SMILES: O=C1CC(Nc2ccccc2)=NN1c1ccccc1
- AC50 [8]: 3.96 µM (active)
- AC50 [12]: 28.2 µM (inconclusive)

SMILES: CCCCCCc1cc2cc(C(=O)Nc3ccccc3)c(=O)oc2cc1O
- AC50 [5]: 3.15 µM (active)
- AC50 [8]: 0.257 µM (active)

SMILES: CN(Cc1nnc(-c2ccc(F)cc2)o1)c1ccccc1
- EC50 [6]: > 260 µM (inactive)

SMILES: CC(C)Cn1c(SCc2nc(O)c3ccccc3n2)nc2ccccc2c1=O
- AC50 [1]: 3.98 µM (inconclusive)

SMILES: Cc1ccc(NC(=S)NNC(=O)c2nnn(-c3ccccc3)c2C)cc1
- IC50 [2]: > 20 µM (inactive)

SMILES: COc1ccccc1N1CCN(Cc2cccc(OC)c2O)CC1
- EC50 [6]: > 260 µM (inactive)

SMILES: COc1cccc(-c2nn(-c3ccccc3)cc2C(=O)n2nnc3ccccc32)c1
- EC50 [6]: 4.15 µM (active)

SMILES: CC1(C)CC2=Nc3cc4c(cc3C(c3ccc5c(c3)OCO5)C2=C(O)C1)OCO4 (stereo not drawn)
- EC50 [6]: 72 µM (active)

SMILES: CCCNCC1C(Oc2ccc(Cl)cc2Cl)C(=O)N1c1cccc(C)c1C (stereo not drawn)
- AC50 [8]: 5.78 µM (active)
- EC50 [13]: > 60 µM (not active)
- EC50 [14]: 3.52 µM (active)

SMILES: Cc1[nH]c2ccccc2c1/C=C(\C#N)C(=O)NCC1CCCO1 (stereo not drawn)
- EC50 [6]: 53.1 µM (active)

SMILES: c1ccc(CN2CCN(CCOCCOc3ccc4c(c3)CCC4)CC2)cc1
- IC50 [11]: 53.6 µM (active)

SMILES: COC(=O)[C@@]1(Cc2ccc(OC)cc2)[C@H]2c3cc(C(=O)N(C)C)n(CCc4c[nH]c5ccc(O)cc45)c3C[C@H]2CN1C(=O)c1ccccc1
- AC50 [1]: 15.8 µM (inconclusive)
- AC50 [15]: 25.1 µM (inconclusive)

SMILES: COc1ccc(NC(=O)c2[nH]cnc2C(=O)NCc2ccccc2)cc1
- IC50 [2]: > 20 µM (inactive)

SMILES: Cc1nn(Cc2ccc(Cl)cc2)c(C)c1NC(=O)c1cc(-c2ccc3c(c2)OCO3)on1
- AC50 [8]: 0.486 µM (active)
- EC50 [13]: 3.87 µM (active)
- EC50 [14]: 1.99 µM (active)

SMILES: O=C(NCCc1ccccc1)c1noc2c1CCc1ccccc1-2
- AC50 [16]: 7.08 µM (inconclusive)
- AC50 [1]: 2.51 µM (inconclusive)

SMILES: Sc1nnc2ccccn12
- IC50 [11]: 34 µM (active)

SMILES: COC(=O)[C@@H](Cc1ccccc1)N(Cc1ccccc1)S(=O)(=O)N(Cc1ccccc1)[C@H](Cc1ccccc1)C(=O)OC
- AC50 [5]: 3.91 µM (active)

SMILES: CCOC(=O)c1c(S(=O)(=O)NCC2CCN(CCc3cccs3)CC2)c(C)n(C)c1C
- EC50 [6]: > 260 µM (inactive)

SMILES: CCC1(c2ccccc2)NC(=O)N(CC(=O)NCc2ccccc2OC)C1=O (stereo not drawn)
- EC50 [6]: > 260 µM (inactive)

SMILES: CSc1ccccc1NC(=O)CN(C)C(C)C(=O)NCc1ccc2c(c1)OCO2 (stereo not drawn)
- IC50 [11]: 46.7 µM (active)

SMILES: COC(=O)N1C(c2ccccc2)C1c1ccccc1 (stereo not drawn)
- EC50 [6]: > 260 µM (inactive)

SMILES: CSCCC(NC(=O)c1ccccc1Br)C(=O)NNC(=O)c1csc(N2CCOCC2)n1 (stereo not drawn)
- IC50 [2]: > 20 µM (inactive)

SMILES: NC(=O)c1ccccc1OC1CCC1
- AC50 [5]: > 260 µM (inactive)

SMILES: O=C(N/N=C/c1cc(Br)c(O)c(Br)c1O)c1ccc2c(c1)OCCO2
- AC50 [5]: 3.1 µM (active)

SMILES: COc1cc(/C=N/Nc2ccccn2)cc(OC)c1O
- IC50 [11]: 35 µM (active)

SMILES: CCOc1cc(/C=N/NC(=O)C(=O)N2CCCC2)ccc1O
- IC50 [11]: 56.3 µM (active)

SMILES: CC(=O)c1cccc(/N=C/c2c(O)oc3ccccc3c2=O)c1
- EC50 [6]: 2.8 µM (active)

SMILES: Cc1cc(NC(=O)c2sc3ccccc3c2O)no1
- IC50 [11]: 75.2 µM (active)
